Assay results as given in patent US7569724B2, “Carbamic acid compounds comprising an amide linkage as HDAC inhibitors” (Topotarget UK Limited, priority 2000, dated 2009).
Like-named read-outs stand apart in the source and are kept apart here.

Key:
HeLa cells = assay: Secondary assay: cell proliferation WST-1, HeLa; assay type: cell-based; settings: Homo sapiens, 48 h, read-out: Cell Proliferation Inhibition WST-1 (IC50 unless otherwise specified) HeLa
Outline: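 Absorbance at 450 nm (reference 690 nm); % activity vs untreated after blank subtraction, IC50 fitted with top 100 and bottom 0.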

human HDAC2 = target: T1, human HDAC2 (Homo sapiens, UniProt Q92769); assay: Primary assay: deacetylase activity, recombinantly produced HDAC2; assay type: biochemical; settings: recombinant HDAC2; read-out: HDAC Inhibition (IC50 unless otherwise specified) HDAC2
T1 construct: Full length human HDAC2 was subcloned; Flag (C); His6 (from pAcHLT-A vector; purified on Ni-NTA) (N); made in house; host or cells: SF9 insect cells (baculovirus)
From the text: (§1) Briefly, this assay relies on the release of radioactive acetate from a radioactively labelled histone fragment by the action of HDAC enzyme. Test compounds, which inhibit HDAC, reduce the yield of radioactive acetate. Signal (e.g., scintillation counts) measured in the presence and absence of a test compound provide an indication of that compound's ability to inhibit HDAC activity. Decreased activity indicates increased inhibition by the test compound.
(§2) The histone fragment was an N-terminal sequence from histone H4, and it was labelled with radioactively labelled acetyl groups using tritiated acetylcoenzyme A (coA) in conjunction with an enzyme which is the histone acetyltransferase domain of the transcriptional coactivator p300. […] The acetylated peptide was then separated from free acetyl coA by size exclusion chromatography on Sephadex G-15 (Sigma G-15-120), using distilled H2O as the mobile phase.
(§3) After purification of the radiolabelled histone fragment, it was incubated with a source of HDAC (e.g., an extract of HeLa cells (a rich source of HDAC), recombinantly produced HDAC1 or HDAC2) and any released acetate was extracted into an organic phase and quantitatively determined using scintillation counting. By including a test compound with the source of HDAC, that compound's ability to inhibit the HDAC was determined.
(§4) Amplification of recombinant viruses was performed according to the Pharmingen Instruction Manual.
(§5) For protein production, 2×10^7 cells were infected with the appropriate recombinant virus for 3 days. Cells were then harvested and spun at 3,000 rpm for 5 minutes. They were then washed twice in PBS and resuspended in 2 pellet volumes of lysis buffer (25 mM HEPES pH 7.9, 0.1 mM EDTA, 400 mM KCl, 10% glycerol, 0.1% NP-40, 1 mM AEBSF). Resuspended cells were frozen on dry ice and thawed at 37° C. 3 times and centrifuged for 10 minutes at 14,000 rpm. […] Incubation was carried out at 4° C. for 1 hour on a rotating wheel. The slurry was then centrifuged at 500 g for 5 minutes. Beads were washed twice in 1 ml of wash buffer (25 mM HEPES pH7.9, 0.1 mM EDTA, 150 mM KCl, 10% glycerol, 0.1% NP-40, 1 mM AEBSF). Protein was eluted 3 times in 300 μl elution buffer (25 mM HEPES pH 7.9, 0.1 mM EDTA, 250 mM KCl, 10% glycerol, 0.1% NP-40, 1 mM AEBSF) containing increasing concentrations of imidazole: 0.2 M, 0.5 M and 1 M. Each elution was performed for 5 minutes at room temperature. Eluted protein was kept in 50% glycerol at −70° C.
(§6) A source of HDAC (e.g., 2 μL of crude HeLa extract, 5 μL of HDAC1 or HDAC2; in elution buffer, as above) was incubated with 3 μL of radioactively labelled peptide along with appropriate dilutions of candidate compounds (1.5 μL) in a total volume of 150 μL of buffer (20 mM Tris pH 7.4, 10% glycerol). The reaction was carried out at 37° C. for one hour, after which the reaction was stopped by adding 20 μL of 1 M HCl/0.4 M sodium acetate. […] Radioactivity was measured using a Tri-Carb 2100TR Liquid Scintillation Analyzer (Packard).
(§7) Percent activity (% activity) for each test compound was calculated as: % activity={(S^C−B)/(S^o−B)}×100 wherein S^C denotes signal measured in the presence of enzyme and the compound being tested, S^o denotes signal measured in the presence of enzyme but in the absence of the compound being tested, and B denotes the background signal measured in the absence of both enzyme and compound being tested.

human HDAC1 = target: T2, human HDAC1 (Homo sapiens, UniProt Q13547); assay: Primary assay: deacetylase activity, recombinantly produced HDAC1; assay type: biochemical; settings: recombinant HDAC1; read-out: HDAC Inhibition (IC50 unless otherwise specified) HDAC1
T2 construct: Full length human HDAC1 was cloned by PCR; Flag (C); His6 (from pAcHLT vector; purified on Ni-NTA) (N); made in house; host or cells: SF9 insect cells (baculovirus)
From the text: as §1, §2, §3
Full length human HDAC1 was cloned by PCR using a λgt11 Jurkat cDNA library (Clontech-HL5012b). The amplified fragment was inserted into the EcoRI-Sall sites of pFlag-CTC vector (Sigma-E5394), in frame with the Flag tag. A second PCR was carried out in order to amplify a fragment containing the HDAC1 sequence fused to the Flag tag.
as §4, §5, §6, §7

HDAC (HeLa cell extract) = assay: Primary assay: deacetylase activity, HeLa cell extract as source of HDAC; assay type: biochemical, human; settings: HeLa cell extract
Outline: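 Crude HeLa extract (freeze-thaw in 60 mM TrisCl pH 8.0, 450 mM NaCl, 30% glycerol) was incubated 1 h at 37° C with a [³H]acetyl-labelled histone H4 N-terminal peptide in 20 mM Tris pH 7.4, 10% glycerol.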

[1] = test system: K11 HPV E7 transformed human keratinocyte line; assay: Secondary assay: cell proliferation WST-1, K11; assay type: cell-based; settings: Homo sapiens, Keratinocyte, 48 h, read-out: Cell Proliferation Inhibition WST-1 (IC50 unless otherwise specified) K11
Protocol: (§8) Compounds with HDAC inhibition activity, as determined using the primary assay, were subsequently evaluated using secondary cell-based assays. The following cell lines were used:
K11—HPV E7 transformed human keratinocyte line provided by Pidder Jansen-Duerr, Institut für Biomedizinische Alternsforschung, Innsbruck, Austria.
(§9) Cells were plated in 96-well plates at 3-10×10^3 cells/well in 100 μL of culture medium. The following day, different concentrations of candidate compounds were added and the cells incubated at 37° C. for 48 h. Subsequently, 10 μL/well of WST-1 reagent was added and the cells reincubated for 1 hour. After the incubation time, absorbance was measured.
(§10) WST-1 is a tetrazolium salt which is cleaved to formazan dye by cellular enzymes. An expansion in the number of viable cells results in an increase in the overall activity of mitochondrial dehydrogenases in the sample. This augmentation in the enzyme activity leads to an increase in the amount of formazan dye formed, which directly correlates to the number of metabolically active cells in the culture. The formazan dye produced is quantified by a scanning multiwell spectrophotometer by measuring the absorbance of the dye solution at 450 nm wavelength (reference wavelength 690 nm).
(§11) Percent activity (% activity) in reducing the number of viable cells was calculated for each test compound as: % activity={(S^C−B)/(S^o−B)}×100 wherein S^C denotes signal measured in the presence of the compound being tested, S^o denotes signal measured in the absence of the compound being tested, and B denotes the background signal measured in blank wells containing medium only.
(§12) IC50 values were calculated using the software package Prism 3.0 (GraphPad software Inc., San Diego, Calif.), setting top value at 100 and bottom value at 0.

JURKAT human T-cell line = assay: Secondary assay: cell proliferation WST-1, Jurkat; assay type: cell-based; settings: Homo sapiens, 48 h, read-out: Cell Proliferation Inhibition WST-1 (IC50 unless otherwise specified) Jurkat
Protocol: as §8
JURKAT—Human T-cell line (ATCC no. TIB-152).
as §9, §10, §11, §12

[2] = read-out: HDAC Inhibition (IC50 unless otherwise specified) HeLa
[3] = comparative tables, no unit in cell, read-out: HeLa IC50

T2 sequence (Q13547 whole entry): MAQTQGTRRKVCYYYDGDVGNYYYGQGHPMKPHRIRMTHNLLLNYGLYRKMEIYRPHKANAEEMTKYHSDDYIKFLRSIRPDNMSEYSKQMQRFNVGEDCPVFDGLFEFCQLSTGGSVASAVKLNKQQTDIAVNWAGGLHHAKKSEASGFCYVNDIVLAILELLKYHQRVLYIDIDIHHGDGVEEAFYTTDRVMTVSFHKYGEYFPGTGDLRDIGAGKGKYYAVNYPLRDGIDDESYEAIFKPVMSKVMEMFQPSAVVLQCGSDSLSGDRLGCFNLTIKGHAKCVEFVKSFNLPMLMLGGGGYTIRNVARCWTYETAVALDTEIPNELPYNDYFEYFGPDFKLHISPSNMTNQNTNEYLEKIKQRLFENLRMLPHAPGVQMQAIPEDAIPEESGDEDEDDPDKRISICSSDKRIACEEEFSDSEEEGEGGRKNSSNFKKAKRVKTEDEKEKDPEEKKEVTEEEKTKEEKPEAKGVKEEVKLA
T1 sequence (Q92769 whole entry): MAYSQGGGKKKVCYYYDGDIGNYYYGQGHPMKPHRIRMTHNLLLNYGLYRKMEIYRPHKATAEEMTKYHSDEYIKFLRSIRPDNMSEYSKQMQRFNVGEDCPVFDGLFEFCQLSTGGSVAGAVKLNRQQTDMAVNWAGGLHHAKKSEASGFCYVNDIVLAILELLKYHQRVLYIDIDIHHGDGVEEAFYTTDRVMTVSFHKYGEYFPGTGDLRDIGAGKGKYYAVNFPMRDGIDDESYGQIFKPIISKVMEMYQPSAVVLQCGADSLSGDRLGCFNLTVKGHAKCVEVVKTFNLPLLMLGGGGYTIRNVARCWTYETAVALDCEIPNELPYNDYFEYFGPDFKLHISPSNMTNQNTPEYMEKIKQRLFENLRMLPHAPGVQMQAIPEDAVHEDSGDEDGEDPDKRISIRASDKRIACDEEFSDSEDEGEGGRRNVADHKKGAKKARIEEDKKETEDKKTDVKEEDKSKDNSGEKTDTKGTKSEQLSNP

| SMILES | IC50 (HeLa cells) | melting point | IC50 (human HDAC2) | IC50 (human HDAC1) | IC50 (HDAC (HeLa cell extract); [2]) | IC50 (HDAC (HeLa cell extract); [3]) | HDAC Inhibition HeLa, percent (HDAC (HeLa cell extract); @ 500 nM) | percent HDAC inhibition at the stated concentration (HDAC (HeLa cell extract); comparative tables, @ 1 μM) | IC50 [1] | IC50 (JURKAT human T-cell line) | IC50 (HDAC (HeLa cell extract); comparative tables, read-out: HeLa IC50) |
| --- | --- | --- | --- | --- | --- | --- | --- | --- | --- | --- | --- |
| O=C(/C=C/c1ccc2c(c1)OCO2)NCCCCCC(=O)NO [PX105831, (E)-3-Benzo[1,3]dioxol-5-yl-N-(5-hydroxycarbamoylpentyl)acrylamide] | 9 µM | 191 to 193 °C | 0.069 µM | 0.064 µM | 0.033 µM |  |  |  |  |  |  |
| CN(C)c1ccc(C(=O)NCCCCCC(=O)NO)c2ccccc12 [PX089275, 4-Dimethylamino-napthalene-1-carboxylic acid (5-hydroxycarbamoyl-pentyl)-amide] | 2.3 µM | 135 to 136 °C | 0.48 µM | 0.175 µM | 0.466 µM | 0.466 µM |  |  |  |  |  |
| CC(/C=C/C(=O)NCCCCCC(=O)NO)=C\c1ccccc1 [PX105829, (2E,4E)-4-Methyl-5-phenylpenta-2,4-dienoic acid (5-hydroxycarbamoylpentyl)amide] | 3.8 µM | 129 to 131 °C | 0.038 µM | 0.031 µM | 0.054 µM |  |  |  |  |  |  |
| COc1ccc(C(=O)NCCCCCC(=O)NO)cc1 [PX089276, N-(5-Hydroxycarbamoyl-pentyl)-4-methoxy-benzamide] | 6.3 µM | 131 to 132 °C | 0.312 µM | 0.25 µM | 0.165 µM |  |  |  |  |  |  |
| O=C(/C=C/c1cccc(NC(=O)/C=C/c2ccccc2)c1)NO [PX106513, N-Hydroxy-3-[3-(3-phenylacryloylamino)-phenyl]-acrylamide] |  | 178 °C |  | 0.438 µM |  |  | 43% @ 500 nM | 43% @ 1 μM |  |  |  |
| O=C(/C=C/C=C/c1ccccc1)NCCCCCCCC(=O)NO [PX105851] | 4.2 µM | 160 to 162 °C | 0.05 µM | 0.012 µM | 0.018 µM | 0.018 µM |  |  |  |  |  |
| O=C(CCCCCNC(=O)C(c1ccccc1)c1ccccc1)NO [PX106489, 6-Diphenylacetylamino-hexanoic acid hydroxyamide] | 60 µM | 55 to 56 °C |  | 4 µM | 3.3 µM |  |  |  |  |  |  |
| O=C(/C=C/C=C/c1ccc(Cl)cc1)NCCCCCC(=O)NO [PX105850, (2E,4E)-5-(4-Chlorophenyl)penta-2,4-dienoic acid (5-hydroxycarbamoylpentyl)-amide] | 6.3 µM | 164 to 168 °C | 0.075 µM | 0.025 µM | 0.028 µM |  |  |  |  |  |  |
| O=C(/C=C/C=C/c1ccccc1)NC[C@H]1CC[C@H](C(=O)NO)CC1 [PX105552, 4-[((2E)(4E)-5-Phenylpenta-2,4-dienoylamino)methyl] cyclohexanecarboxylic acid hydroxyamide] | 10 µM | 210 to 212 °C | 0.967 µM |  | 0.5 µM |  |  |  | 10 µM | 7.9 µM |  |
| O=C(CCCCCNC(=O)c1nc2ccccc2[nH]1)NO [PX105824, 1H-Benzimidazole-2-carboxylic acid (5-hydroxycarbamoylpentyl)amide] | 5.2 µM | 201 °C (dec.) |  | 0.069 µM | 0.069 µM |  |  |  |  |  |  |
| O=C(/C=C/C#Cc1ccccc1)NCCCCCC(=O)NO [PX106525, (E)-5-Phenylpent-2-en-4-ynoic acid (5-hydroxycarbamoylpentyl)amide] | 4.7 µM | 146 to 148 °C |  | 0.037 µM | 0.028 µM |  |  |  | 2.8 µM | 3.6 µM |  |
| O=C(/C=C/C=C/c1ccc(-c2ccccc2)cc1)NCCCCCC(=O)NO [PX105848, (2E,4E)-5-Biphenyl-4-yl-penta-2,4-dienoic acid (5-hydroxycarbamoyl-pentyl)-amide] | 4.3 µM | 222 to 224 °C | 0.056 µM | 0.025 µM | 0.022 µM |  |  |  |  |  | 0.022 µM |
| CC(/C=C/C(=O)NCCCC(=O)NO)=C\c1ccccc1 [PX105554] | 114 µM |  | 31 µM |  | 21.9 µM |  |  |  |  | 20 µM |  |
